The results in this text go back to patent publication US8501446B2 (Vertex Pharmaceuticals Incorporated, priority 2004, dated 2013).

Common to all, as to assay type: biochemical
Assay [1] has as its target T1, full length Aurora-A (AA 1-403) (Homo sapiens, UniProt O14965).
T1 construct: full length Aurora-A (AA 1-403)
T1 sequence (O14965 1-403): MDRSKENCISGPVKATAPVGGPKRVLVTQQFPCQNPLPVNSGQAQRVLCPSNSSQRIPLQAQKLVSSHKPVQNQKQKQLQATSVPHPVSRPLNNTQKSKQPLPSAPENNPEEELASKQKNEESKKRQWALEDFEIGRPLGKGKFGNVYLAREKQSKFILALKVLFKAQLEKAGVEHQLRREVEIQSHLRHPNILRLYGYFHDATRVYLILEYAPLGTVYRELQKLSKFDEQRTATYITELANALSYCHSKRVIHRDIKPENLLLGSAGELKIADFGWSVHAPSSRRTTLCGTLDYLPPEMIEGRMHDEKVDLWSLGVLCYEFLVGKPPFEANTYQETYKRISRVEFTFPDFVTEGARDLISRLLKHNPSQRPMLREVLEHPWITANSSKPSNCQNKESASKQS
Briefly: Aurora-A inhibition assay, standard coupled enzyme system. The following applies: average Ki if more than one value determined.

In assay [2] the target is T2, ROCK I (AA 6-553) (Homo sapiens, UniProt Q13464).
T2 construct: ROCK I (AA 6-553)
T2 sequence (Q13464 6-553, species assumed): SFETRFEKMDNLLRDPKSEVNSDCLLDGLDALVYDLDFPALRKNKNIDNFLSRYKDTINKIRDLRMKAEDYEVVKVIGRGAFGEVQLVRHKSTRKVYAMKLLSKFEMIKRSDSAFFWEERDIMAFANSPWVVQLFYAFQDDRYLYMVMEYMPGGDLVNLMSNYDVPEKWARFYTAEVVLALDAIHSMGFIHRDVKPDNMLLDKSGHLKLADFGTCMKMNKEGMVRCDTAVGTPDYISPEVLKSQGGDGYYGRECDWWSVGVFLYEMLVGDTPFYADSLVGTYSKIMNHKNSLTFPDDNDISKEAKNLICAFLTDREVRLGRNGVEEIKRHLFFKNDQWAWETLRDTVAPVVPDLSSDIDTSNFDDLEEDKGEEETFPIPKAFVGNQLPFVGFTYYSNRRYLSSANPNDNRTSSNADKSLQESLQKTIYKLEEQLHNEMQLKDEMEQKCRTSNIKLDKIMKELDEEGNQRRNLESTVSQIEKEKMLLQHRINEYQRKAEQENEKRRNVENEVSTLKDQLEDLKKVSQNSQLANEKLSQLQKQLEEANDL
Briefly: ROCK inhibition assay, standard coupled enzyme system ("Enzyme"). The following applies: enzyme-linked assay. The method, boiled down: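 ROCK I (AA 6-553) at 45 nM and 30 °C with 45 μM ATP and 200 μM peptide, in 100 mM HEPES pH 7.5, 10 mM MgCl2, 25 mM NaCl, 2 mM DTT, 1.5% DMSO. ADP output read by a PK/LDH coupled system: 2.5 mM PEP, 350 μM NADH, 30 μg/ml PK, 10 μg/ml LDH.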

In assay [3] the target is Aurora-B (Homo sapiens, UniProt Q96GD4). Briefly: Aurora-B inhibition assay, radioactive assay. The following applies: average Ki if more than one value determined. The method, then: Compounds were screened for their ability to inhibit JAK3 using a standard radioactive enzyme assay. 1.5 μL/well of a DMSO stock containing serial dilutions of a compound of the present invention (concentrations ranging from 667 μM to 46 nM) was placed in a 96 well polycarbonate plate. 50 μL per well of kinase buffer (100 mM HEPES (pH 7.4), 10 mM MgCl2, 25 mM NaCl, 1 mM DTT, and 0.01% bovine serum albumin (BSA)) containing 2 μM poly(Glu)4Tyr and 10 μM ATP was also added to the plate. To initiate the reaction, 50 μL kinase buffer containing 2 nM JAK3 enzyme was added. Final ATP concentration was 5 μM [γ-^33P] ATP (200 μCi ^33P ATP/μmol ATP (Perkin Elmer, Cambridge, Mass.). After 20 minutes at room temperature (25° C.), the reaction was stopped by adding 50 μL 20% trichloroacetic acid (TCA)/0.4 mM ATP to each well. The entire content of each well was then transferred to a 96 well glass fiber filter plate using a TomTek Cell Harvester. After washing, 60 μL scintillation fluid was added and ^33P incorporation detected using a Perkin Elmer TopCount. After removing mean background values for all of the data points the data was fit using Prism software to obtain a Ki(app). Inhibition of JAK2 was measured as above except that final poly(Glu)4Tyr concentration was 15 μM and final ATP concentration was 12 μM.
Aurora-B, sequence (Q96GD4 whole entry): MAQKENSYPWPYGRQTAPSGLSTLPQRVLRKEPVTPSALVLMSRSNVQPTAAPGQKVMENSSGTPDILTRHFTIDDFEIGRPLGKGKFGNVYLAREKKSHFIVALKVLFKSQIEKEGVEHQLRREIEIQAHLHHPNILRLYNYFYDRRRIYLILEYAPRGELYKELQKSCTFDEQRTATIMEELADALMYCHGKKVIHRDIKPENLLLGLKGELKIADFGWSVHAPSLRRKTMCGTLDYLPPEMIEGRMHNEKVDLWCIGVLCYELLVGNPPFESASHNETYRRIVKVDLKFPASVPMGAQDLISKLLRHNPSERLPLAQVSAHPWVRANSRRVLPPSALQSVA
Some compounds were screened for their ability to inhibit ROCK using a standard radioactive enzyme assay. Assays were carried out in a solution containing 100 mM HEPES (pH 7.5), 10 mM MgCl2, 25 mM NaCl, 2 mM DTT, and 1.5% DMSO. Final substrate concentrations in the assay were 13 μM [γ-^33P] ATP (25 mCi ^33P ATP/mmol ATP, Perkin Elmer, Cambridge, Mass./Sigma Chemicals, St Louis, Mo.) and 27 μM Myelin Basic Protein (MBP). Final enzyme concentration in the assay was 5 nM ROCK. Assays were carried out at room temperature. 1.5 μl of DMSO stock containing serial dilutions of the compound of the present invention (concentrations ranging from 10 μM to 2.6 nM) was placed in a 96 well plate. 50 μl of Solution 1 (100 mM HEPES (pH 7.5), 10 mM MgCl2, […]) was added to the plate. The reaction was initiated by addition of 50 μl of Solution 2 (100 mM HEPES (pH 7.5), 10 mM MgCl2, 4 mM DTT, […] and 10 nM ROCK). After 2 hours the reaction was quenched with 50 μL of 30% trichloroacetic acid (TCA, Fisher) containing 9 mM ATP. Transfer of 140 μL of the quenched reaction to a glass fiber filter plate (Corning, Cat. No. 3511) was followed by washing 3 times with 5% TCA. 50 μL of Optima Gold scintillation fluid (Perkin Elmer) was added and the plates were counted on a Top Count (Perkin Elmer). After removing mean background values for all of the data points the data was fit using Prism software to obtain a Ki(app).
An assay stock buffer solution was prepared containing all of the reagents listed above with the exception of ATP and the test compound of interest. The assay stock buffer solution (60 μl) was incubated in a 96 well plate with 2 μl of the test compound of interest at final concentrations spanning 0.002 μM to 30 μM at 30° C. for 10 min. Typically, a 12 point titration was conducted by preparing serial dilutions (from 1 mM compound stocks) with DMSO of the test compounds in daughter plates. The reaction was initiated by the addition of 5 μl of ATP (final concentration 200 μM). Rates of reaction were obtained using a Molecular Devices Spectramax plate reader (Sunnyvale, Calif.) over 10 min at 30° C. The Ki values were determined from the rate data as a function of inhibitor concentration using computerized nonlinear regression (Prism 3.0, Graphpad Software, San Diego, Calif.). Aurora-C activity was screened in a similar manner using Aurora-C protein. Aurora-B activity was screened using a radioactive assay, such as described in Examples 1 and 2, but using Aurora-B protein.

Molecules are shown by their SMILES.

The Ki is the equilibrium dissociation constant of an inhibitor or competing ligand from its target. With `C[C@H](Nc1cc(N2CCN(C)CC2)nc(-c2c[nH]c3ncc(Cl)cc23)n1)C(=O)NCC(F)(F)F` [Compound 414], the Ki in assay [1], in assay [2] and in assay [3] was 500 to 5000 nM each time.

As to `COc1ccccc1OCCNC(=O)[C@H](C)Nc1nc(-c2c[nH]c3ncc(Cl)cc23)ncc1F` [Compound 453], the inhibition constant Ki in assay [1], in assay [2] and in assay [3] was 500 to 5000 nM in each case.

For `C[C@@H](C(=O)NCC(F)(F)F)N(C)c1nc(-c2c[nH]c3ncc(Cl)cc23)ncc1C(F)(F)F` [Compound 424], the Ki in assay [1] is < 500 nM; in assay [2] it was 500 to 5000 nM; in assay [3] it was < 500 nM.

Turning to `C[C@H](Nc1nc(-c2c[nH]c3ncc(Cl)cc23)c(F)cc1C(=O)O)c1ccc(F)cc1` [Compound 397], the Ki in assay [1] was < 500 nM; in assay [2], 500 to 5000 nM; in assay [3], < 500 nM.

In the case of `Fc1cnc(-c2c[nH]c3ncc(Cl)cc23)nc1N[C@H]1CCc2ccccc21` [Compound 302], the inhibitory constant (Ki) in assay [1] is < 500 nM; in assay [2], 500 to 5000 nM; in assay [3], < 500 nM.

Take `O=C(CNc1nc(-c2c[nH]c3ncc(Cl)cc23)ncc1C(F)(F)F)NCC(F)(F)F` [Compound 421]: the Ki in assay [1] was < 500 nM; in assay [2], 500 to 5000 nM; in assay [3], 500 to 5000 nM.

Regarding `C[C@H](Nc1cc(N2CCNCC2)nc(-c2c[nH]c3ncc(Cl)cc23)n1)C(=O)NCC(F)(F)F` [Compound 416], the inhibition constant (Ki) in assay [1] is < 500 nM; in assay [2], 500 to 5000 nM; in assay [3], 500 to 5000 nM.

Take `CNC(=O)[C@H](COC)Nc1nc(-c2c[nH]c3ncc(Cl)cc23)ncc1F` [Compound 388]: the Ki in assay [1] was < 500 nM; in assay [2], 500 to 5000 nM; in assay [3], < 500 nM.

`C[C@H](Nc1nc(-c2c[nH]c3ncc(Cl)cc23)ncc1C(F)(F)F)C(=O)NCC(F)(F)F` [Compound 418]: the Ki was < 500 nM in assay [1], 500 to 5000 nM in assay [2] and < 500 nM in assay [3].

`C[C@H](Nc1nc(-c2c[nH]c3ncc(Cl)cc23)ncc1F)C(=O)NCCc1ccccc1` [Compound 433]: the Ki in assay [1], in assay [2] and in assay [3] was 500 to 5000 nM in each case.

In the case of `C[C@@H](Nc1nc(-c2c[nH]c3ncc(Cl)cc23)ncc1F)c1ccc([N+](=O)[O-])cc1` [Compound 310], the results for the Ki in assay [1], in assay [2] and in assay [3] were < 500 nM, 500 to 5000 nM and < 500 nM, respectively.

Consider `C[C@H](Nc1nc(-c2c[nH]c3ncc(Cl)cc23)ncc1F)C(=O)NC1CCCCC1` [Compound 406], for which the Ki was < 500 nM in assay [1], 500 to 5000 nM in assay [2] and 500 to 5000 nM in assay [3].

`C[C@H](Nc1nc(-c2c[nH]c3ncc(Cl)cc23)nc2ccccc12)c1ccc(F)cc1` [Compound 404]: the values for the Ki in assay [1], in assay [2] and in assay [3] were < 500 nM, 500 to 5000 nM and 500 to 5000 nM, respectively.

With `CNc1nc(-c2c[nH]c3ncc(Cl)cc23)nc(N[C@@H](C)C(=O)NCC(F)(F)F)c1C(C)C` [Compound 432], the Ki in assay [1], in assay [2] and in assay [3] was 500 to 5000 nM each time.

As for `C[C@H](Nc1nc(-c2c[nH]c3ncc(Cl)cc23)ncc1F)C(=O)NCCCN1CCCC1` [Compound 439], the Ki in assay [1] was < 500 nM; in assay [2], 500 to 5000 nM; in assay [3] it was < 500 nM.

For the molecule `Cc1cnc(-c2c[nH]c3ncc(Cl)cc23)nc1N[C@@H](C)c1ccc(F)cc1` [Compound 322], the Ki is < 500 nM in assay [1], 500 to 5000 nM in assay [2] and < 500 nM in assay [3].

Take `CC(C)Nc1nc(-c2c[nH]c3ncc(Cl)cc23)ncc1F` [Compound 315]: the Ki was < 500 nM in assay [1], 500 to 5000 nM in assay [2] and 500 to 5000 nM in assay [3].

On to `C[C@H](Nc1ccnc(-c2c[nH]c3ncc(Cl)cc23)n1)C(=O)NCC(F)(F)F` [Compound 413], for which the Ki in assay [1] was < 500 nM; in assay [2] it was 500 to 5000 nM; in assay [3], < 500 nM.

As to `CC(C)OCCCNC(=O)[C@H](C)Nc1nc(-c2c[nH]c3ncc(Cl)cc23)ncc1F` [Compound 440], the Ki in assay [1], in assay [2] and in assay [3] was 500 to 5000 nM each time.

On to `COc1cccc([C@H](C)Nc2nc(-c3c[nH]c4ncc(Cl)cc34)ncc2F)c1` [Compound 305], for which the Ki is < 500 nM in assay [1], 500 to 5000 nM in assay [2] and < 500 nM in assay [3].

`CCc1cnc(Cl)nc1-c1c[nH]c2ncc(Cl)cc12` [Compound 428]: the Ki in assay [1] is < 500 nM; in assay [2], 500 to 5000 nM; in assay [3], 500 to 5000 nM.

In the case of `CNC(=O)[C@@H](Nc1nc(-c2c[nH]c3ncc(Cl)cc23)ncc1F)C(C)(C)C` [Compound 385], the Ki in assay [1] was < 500 nM; in assay [2], 500 to 5000 nM; in assay [3], < 500 nM.

Take `C[C@H](Nc1nc(-c2c[nH]c3ncc(Cl)cc23)ncc1F)C(=O)NCCc1cn(C)cn1` [Compound 434]: the Ki in assay [1], in assay [2] and in assay [3] was 500 to 5000 nM throughout.

In the case of `C[C@H](Nc1cc(N2CCN(C(=O)OC(C)(C)C)CC2)nc(-c2c[nH]c3ncc(Cl)cc23)n1)C(=O)NCC(F)(F)F` [Compound 415], the figures for the Ki in assay [1], in assay [2] and in assay [3] were < 500 nM, 500 to 5000 nM and < 500 nM, respectively.

On to `C[C@H](Nc1cc(NCCO)nc(-c2c[nH]c3ncc(Cl)cc23)n1)C(=O)NCC(F)(F)F` [Compound 417], for which the Ki in assay [1] was < 500 nM; in assay [2], 500 to 5000 nM; in assay [3], < 500 nM.

As for `C[C@H](Nc1nc(-c2c[nH]c3ncc(Cl)cc23)ncc1F)c1cccc(OCCO)c1` [Compound 341], the figures for the Ki in assay [1], in assay [2] and in assay [3] were < 500 nM, 500 to 5000 nM and < 500 nM, respectively.

Turning to `Cc1cccc(C)c1Nc1nc(-c2c[nH]c3ncc(Cl)cc23)ncc1F` [Compound 300], the Ki in assay [1], in assay [2] and in assay [3] was < 500 nM each time.

As to `C[C@H](Nc1nc(-c2c[nH]c3ncc(Cl)cc23)ncc1F)c1cccc(OC(=O)NO)c1` [Compound 375], the Ki in assay [1] is < 500 nM; in assay [2] it was 500 to 5000 nM; in assay [3] it was < 500 nM.
